Results published in ChEMBL document CHEMBL4507262, “Data for DCP probe A-1596586” (2021).

Experiments:
[1] = target: Cyclin-dependent kinase 4 (Homo sapiens) (UniProt P11802); settings: Compound concentration 1000.0 nM
[2] = target: Melatonin receptor type 1B (Homo sapiens) (UniProt P49286); test: MT2 (ML1B) (h) Eurofins-Cerep binding assay; set-up: ligand concentration 0.05 nM; settings: filed as agonist, Compound concentration 10.0 uM
[3] = target: Tyrosine-protein kinase Fyn (Homo sapiens) (UniProt P06241); settings: Compound concentration 1000.0 nM
[4] = target: Kappa-type opioid receptor (Homo sapiens) (UniProt P41145); test: kappa (h) (KOP) Eurofins-Cerep binding assay; set-up: ligand concentration 0.5 nM; settings: filed as agonist, Compound concentration 10.0 uM
[5] = target: Peroxisome proliferator-activated receptor gamma (Homo sapiens) (UniProt P37231); test: PPARgamma (h) Eurofins-Cerep binding assay; set-up: ligand concentration 5 nM; settings: filed as agonist, Compound concentration 10.0 uM
[6] = target: SRSF protein kinase 3 (Homo sapiens) (UniProt Q9UPE1); settings: Compound concentration 1000.0 nM
[7] = target: Mitogen-activated protein kinase kinase kinase 15 (Homo sapiens) (UniProt Q6ZN16); settings: Compound concentration 1000.0 nM
[8] = target: RAC-alpha serine/threonine-protein kinase (Homo sapiens) (UniProt P31749); settings: Compound concentration 1000.0 nM
[9] = target: Serine/threonine-protein kinase Nek5 (Homo sapiens) (UniProt Q6P3R8); settings: Compound concentration 1000.0 nM
[10] = target: Receptor tyrosine-protein kinase erbB-2 (Homo sapiens) (UniProt P04626); settings: Compound concentration 1000.0 nM
[11] = tested on: Tyrosine-protein kinase ABL1 (Homo sapiens), P00519 [F317I]; settings: Compound concentration 1000.0 nM
Chain of Tyrosine-protein kinase ABL1 (Homo sapiens), P00519 [F317I] (P00519 whole entry F317I): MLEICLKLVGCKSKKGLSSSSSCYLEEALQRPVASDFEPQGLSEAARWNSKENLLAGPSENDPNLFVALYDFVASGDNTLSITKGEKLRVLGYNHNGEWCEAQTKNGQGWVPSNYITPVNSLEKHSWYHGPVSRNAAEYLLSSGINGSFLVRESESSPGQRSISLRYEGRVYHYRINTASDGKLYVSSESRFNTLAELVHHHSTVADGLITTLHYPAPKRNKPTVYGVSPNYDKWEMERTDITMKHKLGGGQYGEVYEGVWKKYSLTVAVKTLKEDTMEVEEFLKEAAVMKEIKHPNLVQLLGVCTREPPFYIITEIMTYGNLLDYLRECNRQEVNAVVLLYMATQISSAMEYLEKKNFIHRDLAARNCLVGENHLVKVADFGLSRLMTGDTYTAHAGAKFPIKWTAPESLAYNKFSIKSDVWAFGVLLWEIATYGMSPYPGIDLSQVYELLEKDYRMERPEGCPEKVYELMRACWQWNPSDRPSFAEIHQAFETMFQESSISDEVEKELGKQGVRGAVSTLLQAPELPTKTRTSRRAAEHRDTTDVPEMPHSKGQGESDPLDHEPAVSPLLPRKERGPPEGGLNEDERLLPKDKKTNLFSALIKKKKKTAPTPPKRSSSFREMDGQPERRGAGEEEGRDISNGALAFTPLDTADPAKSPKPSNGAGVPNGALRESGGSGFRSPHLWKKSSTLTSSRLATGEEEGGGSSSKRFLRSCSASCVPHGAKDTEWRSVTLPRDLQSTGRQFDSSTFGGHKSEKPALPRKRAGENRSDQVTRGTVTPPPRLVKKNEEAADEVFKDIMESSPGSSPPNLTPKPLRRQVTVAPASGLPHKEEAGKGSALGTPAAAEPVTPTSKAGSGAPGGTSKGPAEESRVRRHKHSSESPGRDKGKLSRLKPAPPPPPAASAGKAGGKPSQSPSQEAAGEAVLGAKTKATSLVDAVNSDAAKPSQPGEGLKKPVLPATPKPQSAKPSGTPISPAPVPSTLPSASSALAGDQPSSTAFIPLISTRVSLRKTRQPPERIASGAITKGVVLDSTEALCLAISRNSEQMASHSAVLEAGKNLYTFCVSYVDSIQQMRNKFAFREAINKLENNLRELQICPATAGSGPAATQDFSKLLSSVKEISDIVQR

[12] = target: Serine/threonine-protein kinase RIO2 (Homo sapiens) (UniProt Q9BVS4); settings: Compound concentration 1000.0 nM
[13] = target: Alpha-1D adrenergic receptor (Homo sapiens) (UniProt P25100); settings: Compound concentration 10.0 uM
[14] = tested on: Hepatocyte growth factor receptor (Homo sapiens), P08581 [Y1235D]; settings: Compound concentration 1000.0 nM
[15] = target: Cyclin-dependent kinase 14 (Homo sapiens) (UniProt O94921); settings: Compound concentration 1000.0 nM
[16] = target: Calcium/calmodulin-dependent protein kinase type II subunit gamma (Homo sapiens) (UniProt Q13555); settings: Compound concentration 1000.0 nM
[17] = target: Serine/threonine-protein kinase BRSK1 (Homo sapiens) (UniProt Q8TDC3); settings: Compound concentration 1000.0 nM
[18] = tested on: Tyrosine-protein kinase ABL1 (Homo sapiens), P00519 [E255K]; settings: Compound concentration 1000.0 nM
[19] = target: Cyclin-dependent kinase 16 (Homo sapiens) (UniProt Q00536); settings: Compound concentration 1000.0 nM
[20] = target: Cyclin-dependent kinase 11A (Homo sapiens) (UniProt Q9UQ88); settings: Compound concentration 1000.0 nM
[21] = tested on: Tyrosine-protein kinase ABL1 (Homo sapiens), P00519 [F317I]; settings: Compound concentration 1000.0 nM; remark: listed apart in the source
[22] = target: Serine/threonine-protein kinase DCLK1 (Homo sapiens) (UniProt O15075); settings: Compound concentration 1000.0 nM
[23] = tested on: Tyrosine-protein kinase ABL1 (Homo sapiens), P00519 [F317L]; settings: Compound concentration 1000.0 nM
[24] = target: Mitogen-activated protein kinase kinase kinase kinase 3 (Homo sapiens) (UniProt Q8IVH8); settings: Compound concentration 1000.0 nM
[25] = target: SRSF protein kinase 1 (Homo sapiens) (UniProt Q96SB4); settings: Compound concentration 1000.0 nM
[26] = target: Muscarinic acetylcholine receptor M1 (Homo sapiens) (UniProt P11229); test: M1 (h) Eurofins-Cerep binding assay; set-up: ligand concentration 2 nM; settings: filed as antagonist, Compound concentration 10.0 uM
[27] = tested on: Proto-oncogene tyrosine-protein kinase receptor Ret (Homo sapiens), P07949 [V804M]; settings: Compound concentration 1000.0 nM
Chain of Proto-oncogene tyrosine-protein kinase receptor Ret (Homo sapiens), P07949 [V804M] (P07949 whole entry V804M): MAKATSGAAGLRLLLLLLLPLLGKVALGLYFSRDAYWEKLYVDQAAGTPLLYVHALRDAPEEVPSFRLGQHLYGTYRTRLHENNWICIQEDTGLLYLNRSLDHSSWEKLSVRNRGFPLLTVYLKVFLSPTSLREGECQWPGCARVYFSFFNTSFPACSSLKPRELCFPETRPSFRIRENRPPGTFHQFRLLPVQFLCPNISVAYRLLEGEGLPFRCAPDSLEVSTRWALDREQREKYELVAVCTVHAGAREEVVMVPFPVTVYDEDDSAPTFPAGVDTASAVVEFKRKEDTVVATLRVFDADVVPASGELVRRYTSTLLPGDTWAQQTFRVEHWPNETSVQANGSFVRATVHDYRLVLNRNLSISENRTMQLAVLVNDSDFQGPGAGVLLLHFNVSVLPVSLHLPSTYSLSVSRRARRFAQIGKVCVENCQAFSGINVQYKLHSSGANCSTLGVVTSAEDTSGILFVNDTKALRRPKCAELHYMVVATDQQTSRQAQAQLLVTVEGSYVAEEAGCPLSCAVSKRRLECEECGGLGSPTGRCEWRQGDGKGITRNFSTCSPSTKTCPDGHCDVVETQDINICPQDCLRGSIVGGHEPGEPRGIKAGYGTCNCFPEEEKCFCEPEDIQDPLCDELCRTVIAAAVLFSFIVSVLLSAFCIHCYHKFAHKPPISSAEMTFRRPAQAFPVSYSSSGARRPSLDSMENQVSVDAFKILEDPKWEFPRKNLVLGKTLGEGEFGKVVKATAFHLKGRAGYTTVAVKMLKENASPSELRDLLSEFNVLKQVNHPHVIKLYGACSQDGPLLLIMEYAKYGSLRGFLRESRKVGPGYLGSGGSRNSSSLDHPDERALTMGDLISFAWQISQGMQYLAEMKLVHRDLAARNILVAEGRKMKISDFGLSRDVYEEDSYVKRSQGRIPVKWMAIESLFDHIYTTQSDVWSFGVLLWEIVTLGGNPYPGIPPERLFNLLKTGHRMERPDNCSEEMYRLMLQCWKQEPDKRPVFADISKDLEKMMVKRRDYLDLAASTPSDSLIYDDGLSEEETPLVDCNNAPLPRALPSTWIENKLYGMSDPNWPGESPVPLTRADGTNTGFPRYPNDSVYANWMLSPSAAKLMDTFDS

[28] = tested on: Serine/threonine-protein kinase B-raf (Homo sapiens), P15056 [V600E]; settings: Compound concentration 1000.0 nM
[29] = tested on: Epidermal growth factor receptor (Homo sapiens), P00533 [L861Q]; settings: Compound concentration 1000.0 nM
[30] = target: Beta-3 adrenergic receptor (Homo sapiens) (UniProt P13945); settings: Compound concentration 10.0 uM
[31] = target: Rho-associated protein kinase 2 (Homo sapiens) (UniProt O75116); settings: Compound concentration 1000.0 nM
Chain of Rho-associated protein kinase 2 (Homo sapiens) (O75116 whole entry, looked up): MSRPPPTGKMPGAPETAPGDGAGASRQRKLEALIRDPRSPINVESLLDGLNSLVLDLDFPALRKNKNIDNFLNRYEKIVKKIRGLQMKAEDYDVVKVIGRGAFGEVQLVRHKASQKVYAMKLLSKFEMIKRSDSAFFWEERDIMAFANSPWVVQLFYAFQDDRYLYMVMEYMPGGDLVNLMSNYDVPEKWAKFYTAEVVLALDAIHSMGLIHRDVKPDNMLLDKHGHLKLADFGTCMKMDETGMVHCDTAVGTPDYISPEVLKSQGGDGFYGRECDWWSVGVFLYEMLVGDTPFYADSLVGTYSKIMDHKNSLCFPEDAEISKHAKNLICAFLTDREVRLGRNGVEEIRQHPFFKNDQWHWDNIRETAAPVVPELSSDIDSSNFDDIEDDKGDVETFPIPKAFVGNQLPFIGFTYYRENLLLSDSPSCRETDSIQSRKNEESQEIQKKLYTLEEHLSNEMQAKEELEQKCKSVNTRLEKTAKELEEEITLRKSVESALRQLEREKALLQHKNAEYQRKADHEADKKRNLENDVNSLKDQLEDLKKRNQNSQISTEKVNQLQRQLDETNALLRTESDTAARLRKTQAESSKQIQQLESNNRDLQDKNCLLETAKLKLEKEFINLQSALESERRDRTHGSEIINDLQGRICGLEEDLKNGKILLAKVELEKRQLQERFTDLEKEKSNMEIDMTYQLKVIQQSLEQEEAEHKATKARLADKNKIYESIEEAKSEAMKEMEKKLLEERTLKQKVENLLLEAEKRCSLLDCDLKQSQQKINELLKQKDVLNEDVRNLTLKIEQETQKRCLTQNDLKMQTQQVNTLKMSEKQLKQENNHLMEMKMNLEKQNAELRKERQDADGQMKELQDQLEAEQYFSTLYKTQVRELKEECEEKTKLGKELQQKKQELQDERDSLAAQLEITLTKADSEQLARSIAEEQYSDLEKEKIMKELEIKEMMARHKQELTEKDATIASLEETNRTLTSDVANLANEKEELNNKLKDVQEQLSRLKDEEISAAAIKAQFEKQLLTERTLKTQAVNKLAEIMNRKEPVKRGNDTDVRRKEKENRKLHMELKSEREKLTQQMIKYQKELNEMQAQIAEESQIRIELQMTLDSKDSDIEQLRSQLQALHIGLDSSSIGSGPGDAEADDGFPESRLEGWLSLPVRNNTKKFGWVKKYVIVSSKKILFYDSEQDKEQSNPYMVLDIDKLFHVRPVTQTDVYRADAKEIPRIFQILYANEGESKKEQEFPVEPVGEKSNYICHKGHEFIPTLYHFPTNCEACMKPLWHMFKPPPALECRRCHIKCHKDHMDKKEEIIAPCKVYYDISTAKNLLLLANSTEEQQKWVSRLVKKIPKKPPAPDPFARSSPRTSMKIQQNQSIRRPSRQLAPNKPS

[32] = target: Calcium-dependent protein kinase 1 (Plasmodium falciparum) (UniProt P62344); settings: Compound concentration 1000.0 nM
[33] = target: Glucocorticoid receptor (Homo sapiens) (UniProt P04150); test: GR (h) Eurofins-Cerep binding assay; set-up: ligand concentration 1.5 nM; settings: filed as agonist, Compound concentration 10.0 uM
Chain of Glucocorticoid receptor (Homo sapiens) (P04150 whole entry): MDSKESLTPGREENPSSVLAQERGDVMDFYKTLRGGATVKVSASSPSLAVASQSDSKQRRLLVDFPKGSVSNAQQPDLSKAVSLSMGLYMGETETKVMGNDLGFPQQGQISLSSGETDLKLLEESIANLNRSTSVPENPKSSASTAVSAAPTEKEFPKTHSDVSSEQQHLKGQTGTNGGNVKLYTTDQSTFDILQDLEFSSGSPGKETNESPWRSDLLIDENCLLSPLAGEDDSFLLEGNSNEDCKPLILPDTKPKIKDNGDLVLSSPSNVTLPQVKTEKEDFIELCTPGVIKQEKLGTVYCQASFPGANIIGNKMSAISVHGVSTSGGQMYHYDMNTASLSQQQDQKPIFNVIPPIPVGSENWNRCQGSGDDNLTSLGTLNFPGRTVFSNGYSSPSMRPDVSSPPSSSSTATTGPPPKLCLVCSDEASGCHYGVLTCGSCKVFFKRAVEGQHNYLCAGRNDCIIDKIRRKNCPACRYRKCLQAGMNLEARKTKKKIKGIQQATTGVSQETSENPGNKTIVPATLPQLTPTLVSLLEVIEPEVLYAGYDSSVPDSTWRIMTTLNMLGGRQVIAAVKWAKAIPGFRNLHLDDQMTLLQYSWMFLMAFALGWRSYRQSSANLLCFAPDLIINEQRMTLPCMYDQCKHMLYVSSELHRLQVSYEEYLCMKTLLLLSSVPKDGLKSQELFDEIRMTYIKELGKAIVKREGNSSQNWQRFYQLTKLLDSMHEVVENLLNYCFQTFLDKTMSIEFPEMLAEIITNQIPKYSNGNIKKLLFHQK

[34] = target: Ribosomal protein S6 kinase alpha-3 (Homo sapiens) (UniProt P51812); settings: Compound concentration 1000.0 nM
[35] = target: Mitogen-activated protein kinase 8 (Homo sapiens) (UniProt P45983); settings: Compound concentration 1000.0 nM
[36] = target: voltage-gated Na+ channel (site 2) (Rattus norvegicus, UniProt F1LQQ7+O08562+O88420+O88457+P04774+P04775+P08104+P15389+P15390+Q62968); test: Na+ channel (site 2) Eurofins-Cerep binding assay; format: protein assay; set-up: incubation time 60 min, incubation temperature 37°C, ligand concentration 10 nM; settings: rat cerebral cortex, probe [3H]batrachotoxin (10 nM), compound concentration 10 uM, read-out: % Inhibition of Control Specific Binding (Mean n=2)
[37] = target: Protein-tyrosine kinase 6 (Homo sapiens) (UniProt Q13882); settings: Compound concentration 1000.0 nM

Chain of Melatonin receptor type 1B (Homo sapiens) (P49286 whole entry): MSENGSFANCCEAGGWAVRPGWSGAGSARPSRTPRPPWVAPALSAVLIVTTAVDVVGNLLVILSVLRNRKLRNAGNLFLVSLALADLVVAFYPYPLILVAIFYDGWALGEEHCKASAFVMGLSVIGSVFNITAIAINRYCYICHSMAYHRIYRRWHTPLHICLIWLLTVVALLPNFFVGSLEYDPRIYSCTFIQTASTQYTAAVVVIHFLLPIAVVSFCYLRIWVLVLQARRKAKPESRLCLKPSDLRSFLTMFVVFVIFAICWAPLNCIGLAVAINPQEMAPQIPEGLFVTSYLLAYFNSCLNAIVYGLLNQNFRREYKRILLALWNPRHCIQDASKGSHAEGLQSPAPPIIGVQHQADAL
Chain of Cyclin-dependent kinase 4 (Homo sapiens) (P11802 whole entry): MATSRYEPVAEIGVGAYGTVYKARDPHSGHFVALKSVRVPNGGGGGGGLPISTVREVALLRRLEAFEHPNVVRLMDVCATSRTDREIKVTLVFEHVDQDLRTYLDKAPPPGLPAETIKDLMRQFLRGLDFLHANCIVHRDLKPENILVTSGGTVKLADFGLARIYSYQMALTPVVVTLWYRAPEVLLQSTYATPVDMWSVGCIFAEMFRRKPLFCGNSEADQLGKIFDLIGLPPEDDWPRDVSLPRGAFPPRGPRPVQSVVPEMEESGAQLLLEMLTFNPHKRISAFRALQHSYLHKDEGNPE

SMILES	residual activity [1] [%]	% Inhibition of Control Specific Binding (Mean n=2) [2] [%]	residual activity [3] [%]	% Inhibition of Control Specific Binding (Mean n=2) [4] [%]	% Inhibition of Control Specific Binding (Mean n=2) [5] [%]	residual activity [6] [%]	residual activity [7] [%]	residual activity [8] [%]	residual activity [9] [%]	residual activity [10] [%]	residual activity [11] [%]	residual activity [12] [%]	inhibition [13] [%]	residual activity [14] [%]	residual activity [15] [%]	residual activity [16] [%]	residual activity [17] [%]	residual activity [18] [%]	residual activity [19] [%]	residual activity [20] [%]	further results
COc1ccc2c(c1)O[C@H](c1ccc(OC)c(OC)c1)C[C@@H]2NC(=O)C1(c2ccc3c(c2)OC(F)(F)O3)CC1 [A-1596584]	96	38	100	44.7	13.7	97	100	63	100	100	100	100	0.16	100	98	100	100	90	100	100	residual activity [21]: 100%; residual activity [22]: 100%; residual activity [23]: 97%; residual activity [24]: 100%; residual activity [25]: 100%; % Inhibition of Control Specific Binding (Mean n=2) [26]: -28%; residual activity [27]: 100%; residual activity [28]: 93%; residual activity [29]: 100%; inhibition [30]: -7.53%; residual activity [31]: 88%; residual activity [32]: 79%; % Inhibition of Control Specific Binding (Mean n=2) [33]: 13.7%; residual activity [34]: 93%; residual activity [35]: 96%; inhibition at 60 min, 10 µM [36]: 47.3%; residual activity [37]: 100%
COc1ccc2c(c1)O[C@@H](c1ccc(OC)c(OC)c1)C[C@H]2NC(=O)C1(c2ccc3c(c2)OC(F)(F)O3)CC1 [A-1596586]	91	41	96	42.2	-5.5	100	88	100	71	75	93	100	2.75	100	93	96	99	80	88	100	residual activity [21]: 78%; residual activity [22]: 82%; residual activity [23]: 94%; residual activity [24]: 90%; residual activity [25]: 95%; % Inhibition of Control Specific Binding (Mean n=2) [26]: -20.6%; residual activity [27]: 95%; residual activity [28]: 100%; residual activity [29]: 100%; inhibition [30]: 3.77%; residual activity [31]: 78%; residual activity [32]: 70%; % Inhibition of Control Specific Binding (Mean n=2) [33]: 22.1%; residual activity [34]: 100%; residual activity [35]: 91%; inhibition at 60 min, 10 µM [36]: 35%; residual activity [37]: 100%
